In ChEMBL document CHEMBL1201862, “PubChem BioAssay data set” (2004):
The source made the active and inactive calls.

What was measured:
[1] = THP-1 cell cytotoxicity, dose response, cytotoxicity control for Vif-APOBEC3G degradation inhibitor project, THP-1 cells (AID 1117359); assay type: functional; conditions: Human immunodeficiency virus 1, THP-1
[2] = cytotoxicity in HEK-293T cells, dose response, cytotoxicity control for TCR NF-kB inhibitor project, luminescence, T-cell screen hits (AID 489026); assay type: functional, cell-based;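 note: cells exposed to compound about 14 hours before the viability readout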
[3] = cytotoxicity toward DRD oncogenic fibroblasts, dose response, cell-based, non-viral oncogenic, luminescence (AID 1934); assay type: functional; conditions: Homo sapiens
[4] = inhibitors of SNCA 5'UTR-driven reporter translation, confirmation, H4 neuroglioma cells, luminescence (AID 1988); assay type: functional, cell-based
[5] = test system: BJ; assay: cytotoxicity toward BJ-TERT-LT-ST fibroblasts, dose response, cell-based, RAS-independent, luminescence (AID 1935); assay type: functional; conditions: Homo sapiens;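 note: BJ fibroblasts immortalized with TERT plus LT and ST oncogenes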
[6] = inhibitors of firefly luciferase expression or activity, dose response, H4 neuroglioma cells, luminescence (AID 1990); assay type: functional, cell-based
[7] = Luminescence Cell-Based Dose Response HTS to Identify Inhibitors of 5'UTR Stem-Loop Driven Prion Protein mRNA Translation in H4 Neuroglioblastoma Cells. [Related pubchem assays: 1827 (Project Summary), 1813 (Primary HTS)]; assay type: functional
[8] = Luminescence Cell-Based Dose Retest to Confirm Inhibitors of Cancer Stem Cells. [Related pubchem assays (depositor defined):AID2717, AID2721]; assay type: functional; conditions: Homo sapiens
[9] = test system: BJ; assay: cytotoxicity toward BJ-TERT fibroblasts, dose response, cell-based, RAS-independent, luminescence (AID 1933); assay type: functional; conditions: Homo sapiens
[10] = test system: INS1; assay: beta cell apoptosis inhibitors, cytokine rescue, dose response, luminescence, retest (AID 449756); assay type: functional, cell-based; conditions: Rattus norvegicus;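 note: cell death triggered by IL-1 beta plus TNF-alpha plus IFN-gamma mixture; protective hits raise ATP signal compared with cytokine alone wells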
[11] = cytotoxicity toward NIH3T3 fibroblasts, dose response, counter-screen, cell-based, ATP luminescence, mouse fibroblasts (AID 2010); assay type: functional;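 note: cells exposed to compound for about 90 hours before reading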
[12] = inhibitors of intracellular T. cruzi replication, confirmation, NIH3T3 host cells, beta-gal luminescence (AID 2044); assay type: functional, cell-based;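 note: intracellular parasites grown in NIH/3T3 mouse fibroblasts as host cells; luminescent beta-galactosidase reporter signal from transgenic T. cruzi replicating inside host cells; inhibitors lower the luminescence signal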
[13] = target: T1, Short transient receptor potential channel 4 (Mus musculus, UniProt Q9QUQ5); assay: mouse TRPC4 channel inhibitors, dose response, cell-based, HEK293 TRPC4/mu-opioid, Fluo-4 calcium (AID 434942); assay type: functional;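 note: potency of inhibitors blocking the TRPC4 calcium response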
T1 sequence (Q9QUQ5 whole entry): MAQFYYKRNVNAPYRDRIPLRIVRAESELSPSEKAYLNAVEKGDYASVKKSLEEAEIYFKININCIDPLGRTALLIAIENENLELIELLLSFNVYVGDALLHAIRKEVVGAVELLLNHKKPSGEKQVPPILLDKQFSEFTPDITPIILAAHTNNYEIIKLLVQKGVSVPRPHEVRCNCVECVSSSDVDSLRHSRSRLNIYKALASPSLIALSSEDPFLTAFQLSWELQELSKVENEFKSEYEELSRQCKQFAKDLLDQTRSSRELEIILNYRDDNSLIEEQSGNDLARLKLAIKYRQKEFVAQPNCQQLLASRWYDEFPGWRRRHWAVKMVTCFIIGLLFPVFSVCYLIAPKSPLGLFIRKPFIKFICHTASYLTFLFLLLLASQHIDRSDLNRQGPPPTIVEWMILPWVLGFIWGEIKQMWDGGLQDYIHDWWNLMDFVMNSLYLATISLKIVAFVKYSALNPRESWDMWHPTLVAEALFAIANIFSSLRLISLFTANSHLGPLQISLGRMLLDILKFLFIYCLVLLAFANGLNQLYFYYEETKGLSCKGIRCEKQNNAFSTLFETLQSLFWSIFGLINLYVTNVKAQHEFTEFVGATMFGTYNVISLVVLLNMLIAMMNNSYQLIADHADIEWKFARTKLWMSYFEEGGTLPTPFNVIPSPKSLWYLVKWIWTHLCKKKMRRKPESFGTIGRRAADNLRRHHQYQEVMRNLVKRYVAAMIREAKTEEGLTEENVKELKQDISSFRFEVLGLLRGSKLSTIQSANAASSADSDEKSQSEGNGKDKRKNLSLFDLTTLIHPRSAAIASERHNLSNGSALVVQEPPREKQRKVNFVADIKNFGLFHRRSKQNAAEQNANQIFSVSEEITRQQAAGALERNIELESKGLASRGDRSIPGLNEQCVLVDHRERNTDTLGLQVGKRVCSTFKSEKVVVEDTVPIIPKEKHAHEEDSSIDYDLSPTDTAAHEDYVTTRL

[14] = A cytotoxicity screen of small molecule inhibitors of the PhoP region in Salmonella typhi identified in the primary screen. [Related pubchem assays: 1850, 1864, 1985 ]; assay type: functional
[15] = target: T2, Microphthalmia-associated transcription factor (Homo sapiens, UniProt O75030); assay: TRPM1 promoter luciferase signal decrease, dose response, MITF inhibitor project, cell-based, SK-MEL-5, cherry-picked, set 3 (AID 493073); assay type: functional
T2 sequence (O75030 whole entry): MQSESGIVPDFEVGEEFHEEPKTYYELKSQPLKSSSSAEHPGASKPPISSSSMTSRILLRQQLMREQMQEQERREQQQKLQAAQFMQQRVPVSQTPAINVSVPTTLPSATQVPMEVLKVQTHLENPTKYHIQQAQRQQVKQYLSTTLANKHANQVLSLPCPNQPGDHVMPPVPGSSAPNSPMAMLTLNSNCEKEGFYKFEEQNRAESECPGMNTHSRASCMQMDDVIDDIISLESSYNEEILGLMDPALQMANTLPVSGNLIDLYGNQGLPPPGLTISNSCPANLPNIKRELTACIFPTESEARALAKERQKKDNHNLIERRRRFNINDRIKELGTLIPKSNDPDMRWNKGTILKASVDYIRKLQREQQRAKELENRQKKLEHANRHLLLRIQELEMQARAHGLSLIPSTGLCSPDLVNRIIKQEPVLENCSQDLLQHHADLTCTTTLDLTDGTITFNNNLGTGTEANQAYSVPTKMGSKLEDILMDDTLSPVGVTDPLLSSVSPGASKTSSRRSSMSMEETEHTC

[16] = cells; assay type: functional
[17] = cells
[18] = target: T3, Alkaline phosphatase, tissue-nonspecific isozyme (Homo sapiens, UniProt P05186); assay: human TNAP enzyme inhibitors, SAR follow-up, biochemical, luminescent, dose response (AID 1056)
T3 sequence (P05186 whole entry): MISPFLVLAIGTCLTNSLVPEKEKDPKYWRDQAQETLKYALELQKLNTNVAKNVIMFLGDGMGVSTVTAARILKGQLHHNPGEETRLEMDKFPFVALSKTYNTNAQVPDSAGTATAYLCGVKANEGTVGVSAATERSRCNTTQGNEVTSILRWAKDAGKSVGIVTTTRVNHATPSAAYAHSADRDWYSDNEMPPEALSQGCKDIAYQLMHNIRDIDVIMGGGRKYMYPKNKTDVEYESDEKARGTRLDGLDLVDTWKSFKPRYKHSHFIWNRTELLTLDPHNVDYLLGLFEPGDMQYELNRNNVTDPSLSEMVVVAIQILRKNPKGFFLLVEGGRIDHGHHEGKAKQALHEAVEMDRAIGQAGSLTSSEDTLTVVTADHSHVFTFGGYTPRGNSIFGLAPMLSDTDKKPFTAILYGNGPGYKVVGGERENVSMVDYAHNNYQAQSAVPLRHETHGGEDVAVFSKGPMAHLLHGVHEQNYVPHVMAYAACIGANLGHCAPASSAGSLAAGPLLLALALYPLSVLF

[19] = target: Alkaline phosphatase, placental type (Homo sapiens, UniProt P05187); assay: PLAP enzyme inhibitors, confirmation, biochemical, luminescence (AID 1512); assay type: functional
[20] = target: T4, Zinc finger protein mex-5 (Caenorhabditis elegans, UniProt Q9XUB2); assay: MEX-5/TCR-2 RNA interaction inhibitors, dose response, biochemical, C. elegans, fluorescence polarization (AID 1960)
T4 sequence (Q9XUB2 whole entry): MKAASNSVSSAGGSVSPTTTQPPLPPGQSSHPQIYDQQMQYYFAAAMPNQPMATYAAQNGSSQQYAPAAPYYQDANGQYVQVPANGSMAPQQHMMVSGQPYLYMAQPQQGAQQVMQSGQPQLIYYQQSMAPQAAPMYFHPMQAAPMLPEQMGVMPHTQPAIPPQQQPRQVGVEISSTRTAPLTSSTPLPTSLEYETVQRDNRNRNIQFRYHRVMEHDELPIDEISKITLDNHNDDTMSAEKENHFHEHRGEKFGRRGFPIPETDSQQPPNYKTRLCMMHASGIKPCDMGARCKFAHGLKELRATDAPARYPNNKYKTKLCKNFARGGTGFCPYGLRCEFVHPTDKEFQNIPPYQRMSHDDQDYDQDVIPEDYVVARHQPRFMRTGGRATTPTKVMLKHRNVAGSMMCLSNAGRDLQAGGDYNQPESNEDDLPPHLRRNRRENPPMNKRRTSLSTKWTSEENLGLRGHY

[21] = target: T5, RNA-binding protein pos-1 (Caenorhabditis elegans, UniProt G5EF15); assay: inhibitors of POS-1/mex-3 RNA binding, dose response, biochemical, fluorescence polarization (AID 1964);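 note: purified POS-1 fused to maltose binding protein made in E. coli; potency of compounds blocking POS-1 binding to fluorescent RNA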
T5 sequence (G5EF15 whole entry): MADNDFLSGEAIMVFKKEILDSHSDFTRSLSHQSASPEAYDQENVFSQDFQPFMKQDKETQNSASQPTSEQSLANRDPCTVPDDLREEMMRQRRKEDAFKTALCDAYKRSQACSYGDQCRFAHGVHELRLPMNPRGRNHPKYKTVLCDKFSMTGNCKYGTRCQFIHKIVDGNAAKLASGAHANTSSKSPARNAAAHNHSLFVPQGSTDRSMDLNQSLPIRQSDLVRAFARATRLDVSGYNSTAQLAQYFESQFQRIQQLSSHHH

[22] = target: T6, Protein Tat (Human immunodeficiency virus type 1 group M subtype B (isolate HXB2)(HIV-1), UniProt P04608); assay type: functional;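 note: tat binding to TAR RNA read out by fluorescence polarization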
T6 sequence (P04608 whole entry): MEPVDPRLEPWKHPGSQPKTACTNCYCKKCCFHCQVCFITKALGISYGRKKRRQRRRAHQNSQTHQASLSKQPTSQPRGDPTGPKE

[23] = cytotoxicity in HPDE-C7 cells, cell-based, fluorescence, HTS (AID 430); assay type: functional; conditions: Homo sapiens
[24] = cytotoxicity in KRAS-transformed pancreatic duct cells, primary screen, cell-based, fluorescence, HTS (AID 431); assay type: functional; conditions: Homo sapiens;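 note: cell line used: HPDE-C7K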
[25] = target: Genome polyprotein (dengue virus type 2, UniProt P29990); assay: Dengue-2 NS5 methyltransferase inhibitors, primary screen, biochemical, confirmation dose response (AID 588689); assay type: functional
[26] = target: FAD-linked sulfhydryl oxidase ALR (Homo sapiens, UniProt P55789); assay: inhibitors of human ALR sulfhydryl oxidase, dose response, biochemical, H2O2 detection, luminescence, cherry-pick (AID 493248)
Chain of FAD-linked sulfhydryl oxidase ALR (P55789 whole entry): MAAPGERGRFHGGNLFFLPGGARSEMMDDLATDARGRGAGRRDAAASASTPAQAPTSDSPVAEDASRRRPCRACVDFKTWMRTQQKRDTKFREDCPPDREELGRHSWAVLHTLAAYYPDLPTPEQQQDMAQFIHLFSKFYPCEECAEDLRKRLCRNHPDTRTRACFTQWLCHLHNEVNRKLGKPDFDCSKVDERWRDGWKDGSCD

Chain of Alkaline phosphatase, placental type (P05187 whole entry): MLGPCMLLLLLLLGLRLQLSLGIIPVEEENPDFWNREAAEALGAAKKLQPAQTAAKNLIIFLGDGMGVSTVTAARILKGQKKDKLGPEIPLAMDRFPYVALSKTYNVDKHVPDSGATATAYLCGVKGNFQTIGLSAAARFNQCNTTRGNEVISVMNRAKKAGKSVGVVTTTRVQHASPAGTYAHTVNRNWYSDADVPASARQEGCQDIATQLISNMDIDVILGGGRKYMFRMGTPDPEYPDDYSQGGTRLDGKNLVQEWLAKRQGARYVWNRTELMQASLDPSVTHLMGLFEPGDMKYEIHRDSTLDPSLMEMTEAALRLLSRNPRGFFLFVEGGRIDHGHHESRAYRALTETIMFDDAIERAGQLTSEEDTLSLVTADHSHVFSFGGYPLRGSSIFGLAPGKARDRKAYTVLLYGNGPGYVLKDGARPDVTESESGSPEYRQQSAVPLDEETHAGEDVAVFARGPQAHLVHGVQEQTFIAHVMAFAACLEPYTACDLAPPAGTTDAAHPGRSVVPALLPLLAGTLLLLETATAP
Chain of Genome polyprotein (P29990 2492-3391 limits assumed): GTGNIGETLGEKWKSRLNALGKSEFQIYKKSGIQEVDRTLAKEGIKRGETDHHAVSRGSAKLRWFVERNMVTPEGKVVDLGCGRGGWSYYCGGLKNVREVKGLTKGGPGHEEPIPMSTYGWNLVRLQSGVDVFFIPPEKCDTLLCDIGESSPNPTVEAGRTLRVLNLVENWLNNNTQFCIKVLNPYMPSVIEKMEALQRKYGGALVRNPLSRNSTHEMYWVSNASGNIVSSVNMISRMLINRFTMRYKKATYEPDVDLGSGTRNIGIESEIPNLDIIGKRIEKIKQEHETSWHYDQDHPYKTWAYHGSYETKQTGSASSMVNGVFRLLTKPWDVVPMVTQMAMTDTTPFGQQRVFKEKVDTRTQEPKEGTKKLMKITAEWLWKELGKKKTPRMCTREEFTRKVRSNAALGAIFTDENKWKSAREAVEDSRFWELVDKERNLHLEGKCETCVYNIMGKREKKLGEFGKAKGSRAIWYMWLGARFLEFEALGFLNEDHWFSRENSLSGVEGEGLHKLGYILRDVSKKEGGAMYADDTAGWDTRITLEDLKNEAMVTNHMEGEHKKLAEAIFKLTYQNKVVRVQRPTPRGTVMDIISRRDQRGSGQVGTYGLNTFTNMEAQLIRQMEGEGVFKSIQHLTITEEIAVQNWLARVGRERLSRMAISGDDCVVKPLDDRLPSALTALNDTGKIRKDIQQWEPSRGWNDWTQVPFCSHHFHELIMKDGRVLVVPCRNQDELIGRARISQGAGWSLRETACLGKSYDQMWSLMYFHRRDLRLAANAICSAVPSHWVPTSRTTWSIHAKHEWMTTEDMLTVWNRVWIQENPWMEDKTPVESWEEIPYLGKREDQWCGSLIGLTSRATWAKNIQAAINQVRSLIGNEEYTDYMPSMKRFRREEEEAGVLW

## CC(OC(=O)CC1CCCC1)C(=O)Nc1ccc(Cl)cn1 (configuration not stated)
[1]
  CC50: > 40 µM (active)

## Cc1cc(C)cc(NC(=O)c2cc(C)n(Cc3cccs3)c2C)c1
[2]
  IC50: > 80 µM (inactive)

## COc1ccccc1N1CCN(CC(O)COCCOc2ccc(Br)cc2)CC1 (configuration not stated)
[1]
  CC50: 29.9 µM (active)

## COc1cccc(-c2cc(O)c3cc(NC(=O)c4ccc(N(C)C)cc4)ccc3n2)c1
[3]
  EC50: 0.599 µM (active)
[4]
  EC50: 0.296 µM (active)
[5]
  EC50: 0.729 µM (inconclusive)
[6]
  EC50: 0.334 µM (active)
[7]
  EC50: 1.24 µM (active)
[8]
  AC50: 0.477 µM (active)
[9]
  EC50: 0.664 µM (active)
[2]
  IC50: > 80 µM (inactive)

## c1ccc(CN2CCN(Cc3c[nH]c4ccccc34)CC2)cc1
[10]
  AC50: 8.01 µM (active)
[11]
  EC50: > 30 µM (not active)
[12]
  EC50: 0.277 µM (active)
[13]
  EC50: 5.96 µM (active)

## Cc1ccc(OCC(=O)N/N=C/c2ccc([N+](=O)[O-])o2)cc1
[11]
  EC50: > 60 µM (not active)
[12]
  EC50: < 0.1 µM (active)
[14]
  EC50: > 50 µM (active)
[15]
  AC50: 8.9 µM (active)
[16]
  IC50: 3.01 µM (active)
[17]
  EC50: 0.078 µM (active)

## CCCC1(c2ccccc2)NC(=O)N(CC(=O)Nc2ccccc2C(F)(F)F)C1=O (configuration not stated)
[14]
  EC50: > 50 µM (active)

## CCc1ccccc1N=C(S)N(Cc1cccc(C)c1)c1cccnc1
[14]
  EC50: > 50 µM (active)

## Cc1cc(C)c2c(O)nc(SCC(=O)c3ccc(O)c(O)c3)nc2n1
[18]
  IC50: > 100 µM (inactive)
[19]
  IC50: 8.77 µM (active)

## Cc1cccc(N2C(=O)/C(=C/c3ccc(CN(CCC#N)S(C)(=O)=O)o3)C(=O)NC2=S)c1
[20]
  EC50: 41.2 µM (active)
[21]
  EC50: 67 µM (active)
[22]
  IC50: > 100 µM (active)

## Cn1cccc1/C=C1/C(=O)NC(=O)N(Cc2ccc(F)cc2)C1=O
[1]
  CC50: > 40 µM (active)

## Cc1ccsc1/C=N/Nc1ccc(C(=O)O)cc1
[14]
  EC50: > 50 µM (active)

## Cc1ccc(-c2nnc(N3CCN(c4ccccn4)CC3)c3ccccc23)cc1
[23]
  EC50: 16.5 µM (active)
[24]
  EC50: 16.7 µM (active)

## Cc1ccccc1OCCn1c(C)nc2ccccc21
[10]
  AC50: 8.1 µM (active)
[13]
  EC50: 1.19 µM (active)

## Cc1ccc(S(=O)(=O)NCCC(=O)N2CCN(C/C=C/c3ccccc3)CC2)cc1
[1]
  CC50: > 40 µM (active)

## COc1cccc(/C=C2\SC(=S)N(NS(=O)(=O)c3ccc(C)cc3)C2=O)c1OC
[25]
  IC50: 36.2 µM (active)
[26]
  AC50: 9.05 µM (active)
[13]
  EC50: 8.41 µM (active)

## Nc1nnc(-c2cc3ccccc3oc2=O)s1
[18]
  IC50: > 100 µM (inactive)
[19]
  IC50: > 100 µM (inactive)

## CCc1nccn1CC(=O)c1ccc(O)c(O)c1
[18]
  IC50: 62.5 µM (active)
[19]
  IC50: 3.73 µM (active)
